According to US6136814A (priority 1997, dated 2000):
Values joined by “and” are separate entries in the source; they are usually repeats but may differ in a detail not shown here. Equal entries are not always repeated.

Assays:
[1] = cited from earlier work
[2] = depending on the desired concentration; cited from earlier work
[3] = effect of CO2 on pH of unbuffered aqueous sodium hydroxide in polypropylene vials (Example 1); assay type: physicochemical
From the text: This example represents the effect of CO2 on the pH of an unbuffered aqueous sodium hydroxide solution. […] The solution was placed in a series of identical polypropylene vials which were sealed and separated into two groups (Groups A and B). The vials were identical in every relevant parameter, including average wall thickness, surface area, and stoppers. The sodium hydroxide solution in all samples were taken from the same lot and each vial was filled under identical filling conditions. Samples in group A were stored under normal atmospheric conditions. Samples in group B were placed in a 5.8 L desiccator along with a beaker containing 50 mL of 1N aq. HCl (0.05 moles HCl). After carefully adding 100 mL of 0.5M NaHCO3 (0.05 moles NaHCO3) to the HCl solution, the desiccator was immediately sealed to prevent escape of the resulting CO2 (approximately 0.05 moles CO2). The calculated concentration of CO2 in the chamber was approximately 18% by volume. The samples were allowed to stand for 3 weeks under the aforesaid conditions. The pH of the samples in the containers was measured using a calibrated standard pH meter.

[4] = effect of CO2 on pH of aqueous acyclovir solution under accelerated conditions (Example 6); assay type: physicochemical
Experimental: The desiccators were evacuated and filled with the CO2 standards three consecutive times at the beginning of the experiment, and the filling process was repeated each week and each time the desiccators were opened for removing samples. The pressure in the desiccators was maintained at 1 atm. The pH was measured at various time intervals.

[5] = compatibility with container and seal materials, pH on storage (Example 3); assay type: physicochemical; conditions: polypropylene vials, RT and 40° C., three months
Experimental: At various time intervals, the samples were tested for pH. The pH was measured using a calibrated standard pH meter.

[6] = calculated pH over time, 10 mL vial, normal atmospheric storage (Example 7)
Experimental: (§1) The atmospheric CO2 content, measured using a Dickson, Model CO2 X carbon dioxide recorder, was measured as 0.07% by volume and this value was used in the calculation.

[7] = pH stability of aqueous acyclovir sodium under accelerated CO2 permeation conditions (Example 2); assay type: physicochemical; conditions: after 3 weeks
From the text: The solution was transferred, under a nitrogen atmosphere, to autoclaved filling equipment contained within a laminar air-flow hood to avoid particle and microbiological contamination. […] The filtered bulk solution and containers were purged with nitrogen during the filling process to avoid CO2 absorption. The process was repeated for polyethylene terephthalate vials and Daikyo Resin CZ vials (sold by Daikyo Gomu Seiko, Ltd, reported in some references as polymethylpentene).
The samples were tested under accelerated CO2 storage conditions. The samples were placed in three different chambers with elevated CO2 atmospheres, maintained at a concentration of approximately 2%, 5%, and 10% CO2 by volume, for 3 weeks. The pH was measured at various times using a calibrated standard pH meter.

[8] = measured pH drop over 21 months under normal atmospheric conditions (Example 9); assay type: physicochemical
Experimental: For each vial, one half was stored in the upright position and the other half was stored in the inverted position. The pH was measured over time using a standard calibrated pH meter.

[9] = pH at which precipitation or haziness is observed; assay type: physicochemical
From the text: As indicated earlier, the pH of aqueous acyclovir sodium must be maintained above the pHp to avoid the formation of precipitates.

[10] = calculated pH over time, 20 mL vial, normal atmospheric storage (Example 8)
Experimental: as §1

aqueous solubility = assay type: physicochemical; conditions: water, determined experimentally

For `Nc1nc2c(ncn2COCCO)c(=O)[nH]1` [acyclovir, 2-amino-1,9-dihydro-9-[(2-hydroxy-ethoxy)methyl]-6H-purin-6-one], the “water solubility, neutral form” value ([1]; undissociated acyclovir, in words) is given as “virtually insoluble in water”, the “aqueous solubility, neutral form” value ([1]; water, ambient temperature, Pharm. Res., vol. 8, p. 1087 (1991)) is given as 6.2 mM and ~6.2 mM and the “pH required to maintain an aqueous solution” value [2] is given as 10-11.

In the case of `[Na+].[OH-]` [sodium hydroxide], the pH ([3]; Group A normal atmosphere, 1 week) is reported as 11.22, the pH ([3]; Group A normal atmosphere, 3 weeks) is reported as 11.21 and the pH ([3]; Group A normal atmosphere, initial) is reported as 11.31. It also gave a pH ([3]; Group B CO2 chamber (approx. 18% CO2 by vol.), 3 weeks) of 6.37 and a pH ([3]; Group B CO2 chamber (approx. 18% CO2 by vol.), initial) of 11.31.

In the case of `Nc1nc2c(ncn2COCCO)c(=O)[nH]1` [acyclovir sodium], the “initial pH in the absence of CO2” value ([4]; 54.9 mg/mL, with purging headspace) is reported as 11.3, the “Measured pH” value ([4]; 2.00% CO2, 10 mL vials, 14 days) is reported as 11.10 and the “Measured pH” value ([4]; 2.00% CO2, 10 mL vials, 16 days) is reported as 11.08. The “Measured pH” value ([4]; 2.00% CO2, 10 mL vials, 20 days) was 11.03, the “Measured pH” value ([4]; 2.00% CO2, 10 mL vials, 23 days) was 11.03 and the “Measured pH” value ([4]; 2.00% CO2, 10 mL vials, 27 days) was 11.01. For the same molecule, the “Measured pH” value ([4]; 2.00% CO2, 20 mL vials, 14 days) was 11.12, the “Measured pH” value ([4]; 2.00% CO2, 20 mL vials, 16 days) was 11.10 and the “Measured pH” value ([4]; 2.00% CO2, 20 mL vials, 20 days) was 11.07. The “Measured pH” value ([4]; 2.00% CO2, 20 mL vials, 23 days) was 11.05, the “Measured pH” value ([4]; 2.00% CO2, 20 mL vials, 27 days) was 11.02 and the “Measured pH” value ([4]; 10.1% CO2, 10 mL vials, 6 days) was 10.94. For the same molecule, the “Measured pH” value ([4]; 10.1% CO2, 10 mL vials, 9 days) was 10.87, the “Measured pH” value ([4]; 10.1% CO2, 10 mL vials, 14 days) was 10.70 and the “Measured pH” value ([4]; 10.1% CO2, 20 mL vials, 6 days) was 10.97. For the same molecule, the “Measured pH” value ([4]; 10.1% CO2, 20 mL vials, 9 days) was 10.90, the “Measured pH” value ([4]; 10.1% CO2, 20 mL vials, 14 days) was 10.74 and the “precipitation upon visual inspection” value [5] was “no precipitation was observed”. For the same molecule, the “impurities by HPLC” value ([5]; Teflon coated stoppers) was “no significant impurities were generated”, the shelf life [6] was “greater than 24 months” and the precipitate ([7]; 2%, 5% and 10% CO2) was “no precipitate was observed”. For the same molecule, the pH decline ([7]; 5% CO2) was 0.33 pH units, the pH decline ([7]; 10% CO2) was 0.48 pH units and the precipitates ([8]; after 21 months) was “no precipitates were detected”. The “acceptable for parenteral administration” value ([8]; normal atmospheric conditions, upright or inverted) was “at least 21 months”, the shelf life ([8]; real time, normal atmospheric conditions) was “at least 21 months” and the “pH at which precipitation becomes apparent” value ([9]; 54.9 mg/mL aqueous solution, actual observations) was < 10.8. For the same molecule, the “pH below which haziness is observed” value ([9]; about 55 mg/mL acyclovir sodium) was < 10.8, the shelf life [10] was “greater than 24 months” and the solubility (aqueous solubility) was 644 mg/mL.
